Like-named read-outs stand apart in the source and are kept apart here.
Molecular target: WDR5 (Homo sapiens (Human), UniProt P61964)
Assay: Surface Plasmon Resonance (SPR) assay, KD and residence time
Format: binding
Settings: read-out: WDR5 binding affinity (KD)
Description: (i) Surface Plasmon Resonance (SPR) Assay
The lifetime of a drug on its target is determined by two rate constants: the association rate constant (kon) and the dissociation rate constant (koff). In principle, the lifetime of the binary drug—target complex is thus extended by a rapid rate of drug binding and/or a slow rate of drug—target complex dissociation. The in vivo lifetime of a drug-target complex is most critically dependent on the value of the koff [Nat. Rev. Drug Discov. […] Drug Discov. […] Drug-target residence time is defined as the reciprocal of koff (τ=1/koff), making the residence time a parameter that is easily measured by routine in vitro assay methods.

[1] = surface plasmon resonance (SPR)
[2] = surface plasmon resonance (SPR) assay

Kd [1] | Kd [2] | Molecule
4.89 nM | – | 4-(difluoromethyl)-N-[4-fluoro-5-[2-[(2R)-2-methylmorpholin-4-yl]pyrimidin-5-yl]-2-[(3S,5R)-3,4,5-trimethylpiperazin-1-yl]phenyl]-1-methyl-6-oxopyridine-3-carboxamide [Example 481]
– | 117 nM | C[C@H]1CN(c2cc(F)c(-c3cnc(N4CCN(C)CC4)nc3)cc2NC(=O)c2ccc(F)cc2C(F)(F)F)C[C@H](C)N1C (racemic) [Example 382, 4-fluoro-N-[4-fluoro-5-[2-(4-methylpiperazin-1-yl)pyrimidin-5-yl]-2-[(3R,5R)-3,4,5-trimethylpiperazin-1-yl]phenyl]-2-(trifluoromethyl)benzamide]
– | 83.5 nM | C[C@H]1CN(c2cc(F)c(-c3cnc(N4CCOCC4)nc3)cc2NC(=O)c2ccc(F)cc2C(F)(F)F)C[C@H](C)N1C (racemic) [Example 387, 4-fluoro-N-[4-fluoro-5-(2-morpholin-4-ylpyrimidin-5-yl)-2-[(3R,5R)-3,4,5-trimethylpiperazin-1-yl]phenyl]-2-(trifluoromethyl)benzamide]
1.96 nM | – | C[C@@H]1CN(c2ccc(-c3cc(NC(=O)c4cn(C)c(=O)cc4C(F)(F)F)c(N4CCN(C)[C@@H](C)C4)cc3F)cn2)C[C@H](C)O1 (racemic) [Example 421, N-[4-fluoro-5-[6-[(2R,6S)-2,6-dimethylmorpholin-4-yl]pyridin-3-yl]-2-[(3R)-3,4-dimethylpiperazin-1-yl]phenyl]-1-methyl-6-oxo-4-(trifluoromethyl)pyridine-3-carboxamide]
10.9 nM | – | C[C@@H]1CN(c2ncc(-c3cc(NC(=O)c4cn(C)c(=O)cc4C(F)(F)F)c(N4CC[C@@H](N(C)C)C4)cc3F)cn2)C[C@H](C)O1 (racemic) [Example 426, N-[4-fluoro-2-[(3S)-3-(dimethylamino)pyrrolidin-1-yl]-5-[2-[(2R,6S)-2,6-dimethylmorpholin-4-yl]pyrimidin-5-yl]phenyl]-1-methyl-6-oxo-4-(trifluoromethyl)pyridine-3-carboxamide]
5.59 nM | – | CCN(C)[C@@H]1CCN(c2cc(F)c(-c3cnc(N4C[C@@H](C)O[C@@H](C)C4)nc3)cc2NC(=O)c2cn(C)c(=O)cc2C(F)(F)F)C1 (racemic) [Example 427, N-[4-fluoro-5-[2-[(2R,6S)-2,6-dimethylmorpholin-4-yl]pyrimidin-5-yl]-2-[(3S)-3-[ethyl(methyl)amino]pyrrolidin-1-yl]phenyl]-1-methyl-6-oxo-4-(trifluoromethyl)pyridine-3-carboxamide]
0.617 nM | – | C[C@@H]1CN(c2cc(F)c(-c3ccc(N4CCO[C@@H](C)C4)nc3)cc2NC(=O)c2c[nH]c(=O)cc2C(F)(F)F)C[C@H](C)N1C (racemic) [Example 434, N-[4-fluoro-5-[6-[(2R)-2-methylmorpholin-4-yl]pyridin-3-yl]-2-[(3S,5R)-3,4,5-trimethylpiperazin-1-yl]phenyl]-6-oxo-4-(trifluoromethyl)-1H-pyridine-3-carboxamide]
3.43 nM | – | C[C@@H]1CN(c2ncc(-c3cc(NC(=O)c4cn(C)c(=O)cc4C(F)F)c(N4CCN(C)[C@@H](C)C4)cc3F)cn2)CCO1 (racemic) [Example 460, 4-(difluoromethyl)-N-[4-fluoro-2-[(3S)-3,4-dimethylpiperazin-1-yl]-5-[2-[(2R)-2-methylmorpholin-4-yl]pyrimidin-5-yl]phenyl]-1-methyl-6-oxopyridine-3-carboxamide]
0.977 nM | – | C[C@H]1CN(c2cc(F)c(-c3cnc(N4CCOC[C@@H]4C)nc3)cc2NC(=O)c2cn(C)c(=O)cc2C(F)(F)F)CCN1C (racemic) [Example 608, N-[4-fluoro-2-[(3R)-3,4-dimethylpiperazin-1-yl]-5-[2-[(3R)-3-methylmorpholin-4-yl]pyrimidin-5-yl]phenyl]-1-methyl-6-oxo-4-(trifluoromethyl)pyridine-3-carboxamide]
1.31 nM | – | C[C@@H]1CN(c2nccc(-c3cc(NC(=O)c4c[nH]c(=O)cc4C(F)(F)F)c(N4C[C@@H](C)N(C)[C@@H](C)C4)cc3F)n2)CCO1 (racemic) [Example 691, N-[4-fluoro-5-[2-[(2R)-2-methylmorpholin-4-yl]pyrimidin-4-yl]-2-[(3R,5S)-3,4,5-trimethylpiperazin-1-yl]phenyl]-6-oxo-4-(trifluoromethyl)-H-pyridine-3-carboxamide]
4.92 nM | – | C[C@@H]1CN(c2cc(F)c(-c3ccnc(N4CCO[C@@H](C)C4)n3)cc2NC(=O)c2cn(C)c(=O)cc2C(F)(F)F)C[C@H](C)N1C (racemic) [Example 694, N-[4-fluoro-5-[2-[(2R)-2-methylmorpholin-4-yl]pyrimidin-4-yl]-2-[(3S,5R)-3,4,5-trimethylpiperazin-1-yl]phenyl]-1-methyl-6-oxo-4-(trifluoromethyl)pyridine-3-carboxamide]
– | 17.9 nM | CC1CN(c2cc(F)c(-c3cnc(N4CCOCC4)nc3)cc2NC(=O)c2ccccc2)CCN1C (stereo in doubt) [Example 78, N-[4-fluoro-5-(2-morpholin-4-ylpyrimidin-5-yl)-2-[(3R)-3,4-dimethylpiperazin-1-yl]phenyl]benzamide]
– | > 200 nM | CC1CN(c2cc(F)c(-c3cnc(N4CCOCC4)nc3)cc2NC(=O)c2ccco2)CCN1C (stereo in doubt) [Example 79, N-[4-fluoro-5-(2-morpholin-4-ylpyrimidin-5-yl)-2-[(3R)-3,4-dimethylpiperazin-1-yl]phenyl]furan-2-carboxamide]
– | > 200 nM | CC1CN(c2cc(F)c(-c3cnc(N4CCOCC4)nc3)cc2NC(=O)c2cccnc2)CCN1C (stereo in doubt) [Example 80, N-[4-fluoro-5-(2-morpholin-4-ylpyrimidin-5-yl)-2-[(3R)-3,4-dimethylpiperazin-1-yl]phenyl]pyridine-3-carboxamide]
– | 11.1 nM | CC1CN(c2cc(Cl)c(-c3cnc(N4CCOCC4)nc3)cc2NC(=O)c2c[nH]c(=O)cc2C(F)(F)F)CCN1C (stereo in doubt) [Example 81, N-[4-chloro-5-(2-morpholin-4-ylpyrimidin-5-yl)-2-[(3R)-3,4-dimethylpiperazin-1-yl]phenyl]-6-oxo-4-(trifluoromethyl)-1H-pyridine-3-carboxamide]
– | 33.4 nM | CC1CN(c2cc(F)c(-c3cnc(N4CCOCC4)nc3)cc2NC(=O)c2cnn(C)c2)CCN1C (stereo in doubt) [Example 121, N-[4-fluoro-5-(2-morpholin-4-ylpyrimidin-5-yl)-2-[(3R)-3,4-dimethylpiperazin-1-yl]phenyl]-1-methylpyrazole-4-carboxamide]
– | 70.2 nM | CC1CN(c2cc(F)c(-c3ccc(N4CCOCC4)cc3)cc2NC(=O)c2cnn(C)c2)CCN1C (stereo in doubt) [Example 122, N-[4-fluoro-5-(4-morpholin-4-ylphenyl)-2-[(3R)-3,4-dimethylpiperazin-1-yl]phenyl]-1-methylpyrazole-4-carboxamide]
– | > 200 nM | Cc1csc(C(=O)Nc2cc(-c3cnc(N4CCOCC4)nc3)c(F)cc2N2CCN(C)C(C)C2)n1 (stereo in doubt) [Example 181, N-[4-fluoro-5-(2-morpholin-4-ylpyrimidin-5-yl)-2-[(3R)-3,4-dimethylpiperazin-1-yl]phenyl]-4-methyl-1,3-thiazole-2-carboxamide]
– | > 200 nM | CC1CN(c2cc(F)c(-c3cnc(N4CCOCC4)nc3)cc2NC(=O)c2csc(CN(C)C)n2)CCN1C (stereo in doubt) [Example 182, 2-[(dimethylamino)methyl]-N-[4-fluoro-5-(2-morpholin-4-ylpyrimidin-5-yl)-2-[(3R)-3,4-dimethylpiperazin-1-yl]phenyl]-1,3-thiazole-4-carboxamide]
– | 113 nM | CC1CN(c2cc(F)c(-c3cnc(N4CCOCC4)nc3)cc2NC(=O)c2n[nH]cc2Cl)CCN1C (stereo in doubt) [Example 183, 4-chloro-N-[4-fluoro-5-(2-morpholin-4-ylpyrimidin-5-yl)-2-[(3R)-3,4-dimethylpiperazin-1-yl]phenyl]-1H-pyrazole-3-carboxamide]
– | 1260 nM | CC1CN(c2cc(F)c(-c3cnc(N4CCOCC4)nc3)cc2NC(=O)c2ccn(C)n2)CCN1C (stereo in doubt) [Example 192, N-[4-fluoro-5-(2-morpholin-4-ylpyrimidin-5-yl)-2-[(3R)-3,4-dimethylpiperazin-1-yl]phenyl]-1-methylpyrazole-3-carboxamide]

Molecule | Kd [1] | Kd [2]
4-(difluoromethyl)-N-[4-fluoro-5-[6-(oxan-4-yloxy)pyridin-3-yl]-2-[(3R)-3,4-dimethylpiperazin-1-yl]phenyl]-6-oxo-1H-pyridine-3-carboxamide [Example 403] | 1.16 nM | –
C[C@@H]1CN(c2cc(F)c(C3=CC4CCC(C3)N4C(=O)OC(C)(C)C)cc2NC(=O)c2cn(C)c(=O)cc2C(F)(F)F)C[C@H](C)N1C (mixture of isomers) [Example 327, tert-butyl 3-[2-fluoro-5-[[-methyl-6-oxo-4-(trifluoromethyl)pyridine-3-carbonyl]amino]-4-[(3R,5S)-3,4,5-trimethylpiperazin-1-yl]phenyl]-8-azabicyclo[3.2.1]oct-2-ene-8-carboxylate] | – | 123 nM
CC1CN(c2cc(F)c(-c3cnc(N4CCOCC4)nc3)cc2NC(=O)c2nn(C)c3ccccc23)CCN1C (stereo in doubt) [Example 116, N-[4-fluoro-5-(2-morpholin-4-ylpyrimidin-5-yl)-2-[(3R)-3,4-dimethylpiperazin-1-yl]phenyl]-1-methylindazole-3-carboxamide] | – | 76.8 nM
CC1CN(c2cc(F)c(-c3ccc(N4CCOCC4)cc3)cc2NC(=O)c2nn(C)c3ccccc23)CCN1C (stereo in doubt) [Example 117, N-[4-fluoro-5-(4-morpholin-4-ylphenyl)-2-[(3R)-3,4-dimethylpiperazin-1-yl]phenyl]-1-methylindazole-3-carboxamide] | – | 42.8 nM

Reference: patent US11319299B2, “Substituted carboxamides as inhibitors of WDR5 protein-protein binding” (PROPELLON THERAPEUTICS INC., priority 2016, dated 2022)
